Here are results for five molecules from patent US9217012B2, “Inhibitors of protein tyrosine phosphatases” (Indiana University Research and Technology Corporation, priority 2009, dated 2015).

Like-named read-outs stand apart in the source and are kept apart here. Where a SMILES comes first, the peptide text is derived from it. [ ]: non-standard residue; d: D form. F2Pmp = N[CH](Cc1ccc(C(F)(F)P(=O)(O)O)cc1)C(=O)O

Experiment [1] deals with EGFR phosphorylation in PTP1B−/− mouse embryo fibroblast cells. Kind of experiment: Effect of TC-PTP inhibitor on EGFR phosphorylation (anti-pTyr immunoblot). The format is cell-based. The conditions noted are these: 200 nM. As to the method: To determine the cellular efficacy of 10, its effect on tyrosine phosphorylation of EGFR, a known substrate of TC-PTP (Tiganis et al., 1998; Klingler-Hoffmann et al., 2001; Mattila et al., 2005) was assessed using an antibody against pTyr. The cells were incubated with 10 for 2 hr and subsequently treated either with or without EGF (2 ng/ml) for 10 min.
PTP1B^−/− cells were treated with TC-PTP inhibitor at indicated concentration for 2 h before EGF treatment. After EGF treatment (2 ng/ml) for 10 min, cells were lysed in 10 mM HEPES, pH 7.4, 150 mM NaCl, 10% Glycerol, 10 mM sodium phosphate, 10 mM sodium fluoride, 1 mM sodium pervanadate, 1 mM benzamidine, 1% Triton X-100, 10 μg/ml leupeptin, and 5 μg/ml aprotinin. Cell lysates were cleared by centrifugation at 15,000 rpm for 10 min. The lysate protein concentration was estimated using the BCA protein assay kit (PIERCE). To detect EGFR phosphorylation levels, 10 μg of anti-EGFR antibody (CELL SIGNALING, #2232) was added to 1 mg of cell lysate and incubated at 4° C. for 2 h. […] of protein A/G-agarose beads were then added and incubated for another 2 h. After extensive washing, the protein complex was boiled with sample buffer, separated by SDS-PAGE, transferred electrophoretically to PVDF membrane, and immunoblotted with anti-pTyr antibodies (MILLIPORE, #05-1050) followed by incubation with horseradish peroxidase-conjugated secondary antibodies. The blots were developed by the enhanced chemiluminescence technique (ECL kit, AMERSHAM BIOSCIENCES).
PTP1B^−/− mouse embryo fibroblast cells were treated with TC-PTP inhibitor at the indicated concentration for 2 h prior to EGF treatment. After EGF treatment (2 ng/mL) for 10 min, cells were lysed in 10 mM HNEPES, pH 7.4, […], 10% Glycerol, 10 mM sodium phosphate, 10 mM sodium fluoride, 1 mM sodium pervanadate, 1 mM benzamidine, 1% Triton X-100, 10 μg/mL leupeptin, and 5 μg/mL aprotinin. Cell lysates were cleared by centrifugation at 15 000 rpm for 10 min. The lysate protein concentration was estimated using the BAC protein assay kit (Pierce). To detect EGFR phosphorylation levels, 10 μg of anti-EGFR antibody (Cell Signaling, #2232) were added to 1 mg of cell lysate and incubated at 4° C. for 2 h. 20 μL of protein A/G-agarose beads were then added and incubated for another 2 hr. After extensive washing, the protein complex was boiled with sample buffer, separated by SDS-PAGE, transferred electrophoretically to a PVDF membrane, and immunoblotted with anti-pTyr antibodies (Millipore, #5-1050) followed by incubation with horseradish peroxidase conjugalated secondary antibodies. The blots were developed by enhanced chemiluminescence technique (ECL kit, Amersham Biosciences).
The cellular efficacy of compound 10 was assessed by examining its effect on tyrosine phosphorylation of EGFR, a known substrate of TC-PTP. Referring now to FIG. 2 B. PTP1B^−/− mouse embryo filbroblast cells were incubated with compound 10 at various concentrations for 2 h and subsequently treated either with or without EGF (2 ng/mL) for 10 min Inhibition of TC-PTP is expected to enhance endrogenous levels of phosphorylated EGFR. […] Remarkably, the phosphorylated form of EGFR is increased nearly 2-fold even at an inhibitor concentration of 5 nM (1.2×Ki).
(A western blot detects proteins with antibodies after separation by electrophoresis.)

The target in experiment [2] is PTP1B (Homo sapiens (Human), UniProt P18031). Kind of experiment: PTP activity assay with pNPP substrate, PTP1B. The experiment is classed as biochemical. The method, then:
(§1) The PTP activity was assayed using p-nitrophenyl phosphate (pNPP) as a substrate in DMG buffer at 25° C. […] The reaction rate was measure using a SPECTRAMAX microplate spectrophotometer (Molecular Devices). For the determination of Km, the initial velocity and substrate concentration data were fitted to Michaelis-Menten equation using SIGMAPLOT. […] The assays were performed in 96-well plates. […] The reaction rate was measured using a Spectra Max Plus 384 Microplate Spectrophotometer (Molecular Devices). […] The reactions were incubated at room temperature for 30 min and quenched with 5N NaOH. The absorbance at 405 nm was read on the SpectraMax Plus 384 Microplate Spectrophotometer. For the reversibility test, the enzyme was incubated with the inhibitor at room temperature for 30 min before pNPP was added to initiate the reaction. The reaction was then incubated at room temperature for 30 min and quenched and read. […] Data were fitted using SigmaPlot Enzyme Kinetics Module (Systat Software, Inc.)

The target in experiment [3] is TC-PTP (Homo sapiens (Human), UniProt P17706). Kind of experiment: PTP activity assay with pNPP substrate, TC-PTP. The format is biochemical. The conditions noted are these: for IC50: read-out: IC50 for TC-PTP. The method, then:
as §1

Where [4] appears, read: 2 mM pNPP, DMG buffer, 25° C., Table 1.

Chain of TC-PTP (P17706 whole entry): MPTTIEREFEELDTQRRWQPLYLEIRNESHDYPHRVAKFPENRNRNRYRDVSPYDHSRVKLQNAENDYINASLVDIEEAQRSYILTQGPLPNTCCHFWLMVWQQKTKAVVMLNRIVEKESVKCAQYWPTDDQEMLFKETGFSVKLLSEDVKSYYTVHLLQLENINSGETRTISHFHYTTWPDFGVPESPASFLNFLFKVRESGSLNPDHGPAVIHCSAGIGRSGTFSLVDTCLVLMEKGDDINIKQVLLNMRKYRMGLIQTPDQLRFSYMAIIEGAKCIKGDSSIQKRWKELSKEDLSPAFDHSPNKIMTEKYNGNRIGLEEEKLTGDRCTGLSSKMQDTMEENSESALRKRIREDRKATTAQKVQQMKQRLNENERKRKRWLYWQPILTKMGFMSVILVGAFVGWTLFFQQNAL
Chain of PTP1B (P18031 whole entry, species assumed): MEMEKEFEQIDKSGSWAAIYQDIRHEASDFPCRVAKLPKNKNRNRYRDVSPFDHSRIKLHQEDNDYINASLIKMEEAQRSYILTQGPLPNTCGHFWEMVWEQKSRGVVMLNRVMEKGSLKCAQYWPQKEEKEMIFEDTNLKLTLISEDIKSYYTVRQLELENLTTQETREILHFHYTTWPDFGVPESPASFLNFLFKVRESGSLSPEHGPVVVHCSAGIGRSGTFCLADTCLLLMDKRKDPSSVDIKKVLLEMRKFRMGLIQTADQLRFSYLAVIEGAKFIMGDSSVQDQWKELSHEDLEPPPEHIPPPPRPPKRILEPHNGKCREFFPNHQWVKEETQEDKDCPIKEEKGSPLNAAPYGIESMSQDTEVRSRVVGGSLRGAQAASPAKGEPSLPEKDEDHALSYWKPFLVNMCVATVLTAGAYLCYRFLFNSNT

Regarding `CCc1ccc(C(=O)NCCCCC(NC(=O)C(Cc2ccccc2)NC(=O)C(Cc2ccccc2)NC(=O)COC2CC(C)CCC2C(C)C)C(N)=O)cc1` (stereo not shown) [Compound 11], the “effect on EGFR phosphorylation” value in experiment [1] is on record as “no effect”.

As for `CCc1ccc(C(=O)NCCCCC(NC(=O)C(Cc2ccc(C(F)(F)P(=O)(O)O)cc2)NC(=O)C(Cc2ccccc2)NC(C)=O)C(N)=O)cc1` (stereo not shown) [Compound 8], the IC50 (in general, the concentration needed to halve the response being measured) in experiment [2] (setting [4]) was determined as 0.087 ± 0.002 µM. Moreover, in experiment [3] (setting [4]), the IC50 is 0.026 ± 0.002 µM. Besides, in experiment [3] (relative to compound 6), the “change in selectivity against PTP1B relative to 6” value is “no appreciable change” and the “fold increase in affinity for TC-PTP relative to 6” value was found to be 6.2 fold.

Consider `CCc1ccc(C(=O)NCCCCC(NC(=O)C(Cc2ccc(C(F)(F)P(=O)(O)O)cc2)NC(C)=O)C(N)=O)cc1` (stereo not shown) [Compound 6], for which the IC50 in experiment [2] (setting [4]) came out at 0.7 ± 0.02 µM; in experiment [3] (setting [4]), 0.16 ± 0.02 µM. For the same molecule, in experiment [3] (TC-PTP versus PTP1B), the “selectivity for TC-PTP over PTP1B” value was 4.4 fold. Further, in experiment [3] (relative to compound 4), the “fold lower TC-PTP IC50 than parent compound 4” value was found to be 12.5 fold.

For `O=C(N[C@@H](Cc1ccc(C(F)(F)P(=O)(O)O)cc1)C(=O)O)OCC1c2ccccc2-c2ccccc21` [Fmoc-F2Pmp-OH, reference compound], the IC50 in experiment [2] (known competitive ligand) and in experiment [3] (known competitive ligand) was 20 µM in each case.

For the molecule `CC(=O)NCCCCC(NC(=O)C(Cc1ccc(C(F)(F)P(=O)(O)O)cc1)NC(C)=O)C(N)=O` (stereo not shown) [Compound 4] (Ac-[F2Pmp]-Lys(Ac)-NH2; configuration not given here), the IC50 in experiment [2] (setting [4]) and in experiment [3] (setting [4]) was 2 µM each time.
